Data reported in a melting point compilation (Tetko et al.; mined from patent text by program, amines drawn as free bases though some values may be those of a salt).

Point of comparison: `CCCCOc1cc(/C=C(\OCC)C(=O)O)ccc1OCCc1ccc(OCC)c(F)c1`, melting point 119 °C. Against it:
- O=C(c1ccc([N+](=O)[O-])cc1)N1CCN(CCc2ccc(Cl)cc2)CC1 — lower, 109 to 110 °C
- CNc1nc(C=CC(=O)OC)c(-c2ccncc2)s1 — higher, 166 to 167 °C
- Cn1c(C(F)(F)F)cc(=O)n(-c2cc(OC3CC=CNC3=O)c(Cl)cc2F)c1=O (stereo not drawn) — lower, 91 °C
- CCCC(Cc1ccc(OCc2ccccc2)cc1)C(=O)O (stereo not drawn) — lower, 83 to 85 °C
- CC(C)C(NC(=O)OCc1cccnc1)C(=O)NC(Cc1ccccc1)C(O)C(Cc1ccccc1)NC(=O)C(NC(=O)OCc1cccnc1)C(C)C (stereo not drawn) — higher, 177 to 178 °C
- COc1ccc(C(N)=Nc2ccc(C(=O)O)cc2)cc1C12CC3CC(CC(C3)C1)C2 — higher, 263 to 265 °C
- CC(C)CC(CO)NC(=O)C(Cc1cn(NC(=O)OCc2ccccc2)cn1)NC(=O)CCCc1ccccc1 (single isomer, unassigned; (-)) — higher, 178 to 180 °C
- O=C(O)COc1cccc2c1Cc1sc(SCC=Cc3ccccc3)nc1-2 — higher, 172 to 174 °C
- CCC[C@H]1CC[C@H](c2ccc(F)c(F)c2)CC1 — lower, -15.4 °C
- COc1cc(C(=O)CBr)cc([N+](=O)[O-])c1O — higher, 147 to 149 °C
- COC(=O)C1CC(O)CN1C(=O)c1ccc(OC)c(OC)c1 (stereo not drawn) — higher, 174 °C
- NC(=O)c1sc2ncnc(-c3cc(O)c4c(c3)OCC4)c2c1N — higher, 285 °C
- c1ccc(C2=N[C@@H](c3ccccc3)[C@H](N3CCOCC3)S2)cc1 (relative stereo) — lower, 92 to 94 °C
- O=Cc1cccc2c1[nH]c1c3cc(Br)ccc3oc21 — higher, 280 to 281 °C
- CN1C(=O)C(C(=O)Nc2ccc(F)cc2)S(=O)(=O)c2ccccc21 (stereo not drawn) — higher, 189 to 192 °C
- CC(=O)Oc1ccc(C#Cc2ccccc2)cc1 — lower, 104 to 106 °C
- O=C1OCCC1N1CCCC1=O (stereo not drawn) — lower, 80 to 81 °C
- COc1ccc(S(=O)(=O)CC(O)(CS(=O)(=O)c2ccc(OC)cc2)C(=O)NO)cc1 — lower, 75 to 80 °C
- COC(=O)c1nc(-c2ccc(Cl)cc2F)cc(N)c1Br — higher, 148 to 149 °C
- CNc1ncnc2c1c(=O)n(C)c(=O)n2C — higher, 178 to 179 °C
- Cc1ccc(-c2cc(C(F)(F)F)nn2-c2ccc(C#N)cc2)cc1 — higher, 125 to 126 °C
- S=C1CC2Cc3ccc(Cl)cc3C2N1 (stereo not drawn) — higher, 225 to 227 °C
- CCn1nc2c(N)nc3ccccc3c2c1CCCCN1C(=O)c2ccccc2C1=O — higher, 216 to 217 °C
- CC(C)(C)OC(=O)c1ccc(C#Cc2cnc3nc(N)nc(O)c3c2)cc1 — higher, > 260 °C
- Cc1ccc(CN2CC=C(/C=C/c3cccc(Cl)c3)CC2)cc1 — lower, 86 to 88 °C
- N#Cc1ccc(-c2nc(C(F)(F)F)c(C(=O)O)s2)cc1 — higher, 195 to 196 °C
- Cc1cc(S(F)(F)(F)(F)F)c(S(C)(=O)=O)cc1C(=O)NC(=N)N — higher, 254 to 256 °C
- O=C(O)c1ccc(Oc2ccc3c(c2)CCN(C2CCN(C4CCC4)CC2)C3=O)cc1 — higher, 255 to 256 °C
- O=C1CCC(NC(=O)OCc2ccccc2)(C(=O)OCc2ccc([N+](=O)[O-])cc2)O1 (stereo not drawn) — higher, 127 to 128 °C
- Cc1ccc(C2C3=C(CC(C)(C)CC3=O)NC3=C2C(=O)CC(C)(C)C3)cc1C — higher, > 300 °C
- CC(C)CCC(O)C(CC1CCCCC1)NC(=O)C(Cc1c[nH]cn1)N(C)C(=O)C(Cc1ccccc1)NC(=O)N1CCOCC1 (stereo not drawn) — lower, 102 to 108 °C
- Cc1cccc2c1N(C(=O)OC(C)(C)C)Cc1c(-c3noc(C4CC4)n3)ncn1-2 — higher, 189 to 192 °C
- CCc1nc2c(C)cc(C)nc2n1Cc1ccc(C(Cc2nnn[nH]2)c2ccccc2Cl)cc1 (stereo not drawn) — higher, 217 to 221 °C
- CCOC(=O)C1Cc2cc3c(-c4ccccc4F)noc3c(C)c2O1 (stereo not drawn) — higher, 124 to 125 °C
- Cc1cccc(C)c1N1CC(C)N(c2c(C)cccc2C)C1=N (single isomer, unassigned; (+)) — lower, 99 to 101 °C
- O=C1Cc2cc(CCN3CCN(c4nsc5ccccc45)CC3)ccc2N1 — higher, 288 °C
- O=C(c1cc(=O)c2cc(O)ccc2[nH]1)N1CCC(Cc2ccc(Cl)cc2)CC1 — higher, 194 °C
- NC(=O)c1c(F)ccc(OCC=CC(=O)O)c1F — higher, 187 to 188 °C
- Oc1ncnc2cnc(NC3CC3)nc12 — higher, > 240 °C
- CN(C)c1c(SC(F)(F)F)c(C#N)nn1-c1c(Cl)cc(C(F)(F)F)cc1Cl — lower, 110 to 111 °C
- CCC(NC(C)=O)C(=O)O (stereo not drawn) — higher, 128 to 130 °C
- CCOC(=O)c1c(SCOC)nc2c(F)c(F)c(F)cc2c1O — lower, 91 to 94 °C
- CN(Cc1ccc(OC(=O)Cc2ccccc2Nc2c(Cl)cccc2Cl)cc1)CC(C)(C)SN=O — higher, 126 to 130 °C
- CCCCOc1cc(/C=C/S(=O)(=O)NC(=O)OC(C)(C)C)n(Cc2ccc(Cl)cc2Cl)n1 — higher, 152 to 153 °C
- CCOC(=O)C(C)Oc1ccc(N(C)c2nc(Cl)c3cc(Cl)ccc3n2)cc1 (stereo not drawn) — higher, > 250 °C
- CN(C)c1ccc2c(c1)O/C(=C1/Oc3cc(N(C)C)ccc3C1=O)C2=O — higher, > 320 °C
- CCOc1ccc(C=CCCCCC(=O)O)cc1 — lower, 62 to 63 °C
- CC(CS)C(=O)Nc1cc(C(=O)O)ccn1 (stereo not drawn) — higher, 247 to 248 °C
- CCOc1ccc(F)cc1C1OC(=O)NC1=O (stereo not drawn) — higher, 188 to 190 °C
- O=C(NCC1CCN(C[C@H]2COc3cccc(Cl)c3O2)CC1)c1cccnc1 — lower, 52 to 54 °C
- O=S1(=O)N=C(n2ccnc2)Nc2ccc(C(F)(F)F)cc21 — higher, 211 to 214 °C
- CCS(=O)(=O)CCC(=O)NNC(=O)N1Cc2ccccc2Oc2ccc(C#N)cc21 — higher, 188 to 190 °C
- COc1ccc(C[C@@H]2COc3ccc(OCc4ccc5ccccc5n4)cc3[C@@H]2O)cc1C(=O)O (relative stereo) — higher, 167 to 169 °C
- Cn1cnnc1C(c1ccc(Cl)cc1)c1ccc2c(c1)c(-c1cccc(Cl)c1)cc(=O)n2C (stereo not drawn) — higher, 153 °C
- CCCCn1ccc(-c2ccc(Oc3cc(C)nc(C)c3)c(F)c2)c(C#N)c1=O — higher, 205 °C
- CCOc1nn(Cc2ccc(OCc3ccccc3)cc2)cc1CCC(=O)O — lower, 115 to 116 °C
- O=C1C=C(c2c[nH]c3ccc(O)cc23)C(=O)N1 — higher, 292 to 298 °C
- CC(=N)Nc1cccc([N+](=O)[O-])c1 — higher, 226 to 228 °C
- OC(CCCN1CC=C(c2cc(C(F)(F)F)on2)CC1)c1ccc(F)cc1 (stereo not drawn) — higher, 120 to 122 °C
- Nc1ncnc2c1c(-c1ccc(Oc3ccc(F)cc3)cc1)cn2C1CCOC1 (stereo not drawn) — higher, 198 to 199 °C
- CCCCCCCCCCCCCCCCCC[C@@H]1OC(=O)C(O)=C1O — lower, 110 to 112 °C
- CS(=O)(=O)Nc1cc(OCCC(=O)O)ccc1Oc1ccccc1 — higher, 145 to 149 °C
- CN(c1cccc2cc(C(N)=O)[nH]c12)S(=O)(=O)c1nccs1 — higher, 220 to 221 °C
- COC(=O)CN1CCC(C(=O)Oc2ccc([N+](=O)[O-])cc2)CC1 — lower, 109 to 111 °C
- ON=C1CN2CCC1CC2 — not separable, 117 to 119 °C
- COc1cccc(-c2nn(Cc3oc4ccccc4c(=O)c3-c3ccccc3)c3ncnc(N)c23)c1 — lower, 111 to 115 °C
- CCCC12CCC3C4=C(CCC3C1CCC2O)CC(OC)=CC4 (stereo not drawn) — higher, 153 to 156 °C
- Cc1c(N2C[C@H]3CCOC[C@@]3(N)C2)c(F)cc2c(=O)c(C(=O)O)cn([C@@H]3C[C@@H]3F)c12 — higher, 158 to 160 °C
- Cc1cc(C)n(C)c(=O)n1 — lower, 58 to 60 °C
- Cc1cccc(C)c1CNc1cc(C(=O)N(C)C)nc2c(C)c(C)n(Cc3ccccc3)c12 — higher, 203 °C
- Cc1noc2cc(F)c(-n3c(=O)cc(C(F)(F)F)[nH]c3=O)cc12 — higher, 235 to 237 °C
- NC(=O)c1[nH]c2ccccc2c1-c1ccc(NC(=O)Nc2ccc(C(F)(F)F)c(Cl)c2)cc1 — higher, 168 to 170 °C
- Cc1ccc(S(=O)(=O)OCC2Cn3c(nc4ccccc43)-c3ccccc3O2)cc1 (stereo not drawn) — higher, 166 °C
- CN(C)C=Nc1ncc(S(=O)(=O)NC(C)(C)C)c(O)n1 — higher, 258 to 261 °C
- CC(O)CC(=O)Nc1c(C(=O)c2ccccc2)[nH]c2cc(Cl)ccc12 (stereo not drawn) — higher, 159 to 162 °C
- Cc1cc(Nc2nc(Nc3ccc(N)cc3)nc3ccccc23)[nH]n1 — higher, 164 to 167 °C
- C[C@@H](O)Cn1cnc2c(N)ncnc21 — higher, 188 to 190 °C
- Cc1oc(-c2ccccc2)nc1COc1ccc(COc2nn(Cc3ccccc3)cc2CCC(=O)O)cn1 — higher, 130 to 131 °C
- Oc1ccc(NCCCCCCBr)cc1 — higher, 123 to 126 °C
- N#Cc1nn(-c2c(Cl)cc(C(F)(F)F)cc2Cl)c(N)c1-c1ccc(Br)cc1 — higher, 242 to 244 °C
- O=C(O)Cc1ccc(O)c(Cl)c1 — lower, 101 to 104 °C
- CN1CCN(C(=O)c2ccc3n2Cc2ccc(C(=O)O)cc2N(C(=O)c2ccc(C4CCCCC4)cc2)C3)CC1 — higher, 195 to 210 °C
- O=C(NCCCl)Oc1ccc(Cl)c2cccnc12 — higher, 146 °C
- CCOC(=O)c1cc(O)ccc1OCC — lower, 49 to 53 °C
- O=C(O)CCn1c(=O)c(=O)[nH]c2cc([N+](=O)[O-])ccc21 — higher, 148 to 156 °C
- O=C(O)Cc1cc(C(=O)c2cccc(C(=O)O)c2)ccc1O — higher, > 260 °C
- Nc1ccc(-c2noc(-c3cnn4c(C(F)F)cc(-c5ccc(Cl)cc5)nc34)n2)cn1 — higher, 254 °C
- CCCC1=C(C(=O)OCC)C(c2ccccc2Cl)c2cn(C)nc2N1 (stereo not drawn) — higher, 150 to 151 °C
- Cc1cc(C(=O)Nc2cc(Oc3ccc4nc(NC(=O)C5CC5)cn4n3)ccc2C)n(C)n1 — higher, 223 °C
- CN(C(=O)c1ccccc1)c1cccc(-c2nc(=O)c3ccccc3s2)n1 — higher, 234 to 235 °C
- CCc1c(Oc2ccc(C(F)(F)F)cc2[N+](=O)[O-])nn(C(=O)NC)c1C — lower, 81 to 82 °C
- CCCC(=O)CC(=O)c1ccc(C2CCC(CC)CC2)cc1 (stereo not drawn) — lower, 99 °C
- CCOC(=O)c1ccc([N+](=O)[O-])c(O)c1 — lower, 80 to 81 °C
- CC(C)(C)OC(=O)Nc1cc(OCC#N)c(I)cc1[N+](=O)[O-] — higher, 125 °C
- CSc1ccc(-c2nc3[nH]nc(N)c3c(=O)n2-c2ccc(C)c(C)c2)cc1 — higher, 263 to 266 °C
- COc1cccc(-c2c(NC(=O)Nc3c(C(C)C)cccc3C(C)C)c(=O)n(CCOc3ccccc3)c3ncccc23)c1 — higher, 168 to 170 °C
- CC(=O)OCC(=O)C1=CCC2C3CCC4=CC(=O)CCC4(C)C3=CCC12C (stereo not drawn) — higher, 128 to 129 °C
